How the values were obtained:
Format in all cases: functional
[1] = test system: NCI-H322M; assay: Growth inhibition of human NCI-H322M cells after 72 hrs by MTT assay
[2] = test system: EKVX; assay: Growth inhibition of human EKVX cells after 72 hrs by MTT assay
[3] = test system: CAKI-1; assay: Growth inhibition of human Caki-1 cells after 72 hrs by MTT assay; settings: CAKI-1, 72 h
[4] = test system: SF-295; assay: Growth inhibition of human SF-295 cells after 72 hrs by MTT assay; settings: SF-295, 72 h
[5] = test system: MDA-N; assay: Growth inhibition of human MDA-N cells after 72 hrs by MTT assay
[6] = test system: SK-OV-3; assay: Growth inhibition of human SKOV3 cells after 72 hrs by MTT assay; settings: SK-OV-3, 72 h
[7] = test system: IGROV-1; assay: Growth inhibition of human IGROV1 cells after 72 hrs by MTT assay; settings: IGROV-1, 72 h
[8] = test system: CCRF-CEM; assay: Growth inhibition of human CCRF-CEM cells after 72 hrs by MTT assay
[9] = test system: TK-10; assay: Growth inhibition of human TK-10 cells after 72 hrs by MTT assay; settings: TK-10, 72 h
[10] = Growth inhibition of human Hs 578T cells after 72 hrs by MTT assay
[11] = test system: NCI/ADR-RES; assay: Growth inhibition of human NCI/ADR-RES cells after 72 hrs by MTT assay
[12] = test system: PC-3; assay: Growth inhibition of human PC-3 cells after 72 hrs by MTT assay; settings: PC-3, 72 h
[13] = test system: MDA-MB-435; assay: Growth inhibition of human MDA-MB-435 cells after 72 hrs by MTT assay; settings: MDA-MB-435, 72 h
[14] = test system: OVCAR-3; assay: Growth inhibition of human OVCAR-3 cells after 72 hrs by MTT assay; settings: OVCAR-3, 72 h
[15] = test system: SK-MEL-5; assay: Growth inhibition of human SK-MEL-5 cells after 72 hrs by MTT assay; settings: SK-MEL-5, 72 h
[16] = test system: DU-145; assay: Growth inhibition of human DU-145 cells after 72 hrs by MTT assay; settings: DU-145, 72 h
[17] = test system: SF-268; assay: Growth inhibition of human SF-268 cells after 72 hrs by MTT assay; settings: SF-268, 72 h
[18] = test system: M14; assay: Growth inhibition of human M14 cells after 72 hrs by MTT assay; settings: M14, 72 h
[19] = test system: MOLT-4; assay: Growth inhibition of human MOLT-4 cells after 72 hrs by MTT assay; settings: MOLT-4, 72 h
[20] = test system: HCC 2998; assay: Growth inhibition of human HCC2998 cells after 72 hrs by MTT assay; settings: HCC 2998, 72 h
[21] = test system: RPMI-8226; assay: Growth inhibition of human RPMI 8226 cells after 72 hrs by MTT assay; settings: RPMI-8226, 72 h
[22] = test system: COLO 205; assay: Growth inhibition of human COLO205 cells after 72 hrs by MTT assay; settings: COLO 205, 72 h
[23] = test system: HCT-15; assay: Growth inhibition of human HCT-15 cells after 72 hrs by MTT assay; settings: HCT-15, 72 h
[24] = Growth inhibition of human HCT 116 cells after 72 hrs by MTT assay; settings: HCT-116, 72 h
[25] = test system: OVCAR-8; assay: Growth inhibition of human OVCAR8 cells after 72 hrs by MTT assay; settings: OVCAR-8, 72 h
[26] = test system: NCI-H226; assay: Growth inhibition of human NCI-H226 cells after 72 hrs by MTT assay; settings: NCI-H226, 72 h
[27] = test system: LOX IMVI; assay: Growth inhibition of human LOX IMVI cells after 72 hrs by MTT assay
[28] = Growth inhibition of human SK MEL28 cells after 72 hrs by MTT assay; settings: SK-MEL-28, 72 h
[29] = test system: ACHN; assay: Growth inhibition of human ACHN cells after 72 hrs by MTT assay
[30] = test system: MCF7; assay: Growth inhibition of human MCF7 cells after 72 hrs by MTT assay; settings: MCF7, 72 h
[31] = test system: HL-60(TB); assay: Growth inhibition of human HL-60(TB) cells after 72 hrs by MTT assay; settings: HL-60, 72 h
[32] = test system: NCI-H460; assay: Growth inhibition of human NCI-H460 cells after 72 hrs by MTT assay; settings: NCI-H460, 72 h
[33] = test system: T47D; assay: Growth inhibition of human T47D cells after 72 hrs by MTT assay
[34] = read-out: LC50 (the source's name)

## C[C@@H]1CC[C@@]2(OC1)O[C@H]1C[C@H]3[C@@H]4CC[C@H]5C[C@@H](O[C@@H]6O[C@H](CO)[C@H](O[C@@H]7O[C@H](CO)[C@@H](O)[C@H](O[C@@H]8OC[C@@H](O)[C@H](O)[C@H]8O)[C@H]7O[C@@H]7O[C@H](CO)[C@@H](O)[C@H](O)[C@H]7O)[C@H](O)[C@H]6O)[C@H](O)C[C@]5(C)[C@H]4CC[C@]3(C)[C@H]1[C@@H]2C
[1]
  GI50: 12 µM
  TGI: 26 µM
[1]; [34]
  CC50: 55 µM
[2]
  GI50: 11 µM
  TGI: 27 µM
[2]; [34]
  CC50: 63 µM
[3]
  GI50: 1.4 µM
  TGI: 18 µM
[3]; [34]
  CC50: < 100 µM
[4]
  GI50: 12 µM
  TGI: 49 µM
[4]; [34]
  CC50: < 100 µM
[5]
  GI50: 11 µM
  TGI: 28 µM
[5]; [34]
  CC50: 74 µM
[6]
  GI50: 13 µM
  TGI: 41 µM
[6]; [34]
  CC50: < 100 µM
[7]
  GI50: 3.7 µM
  TGI: 17 µM
[7]; [34]
  CC50: 48 µM
[8]
  GI50: 0.25 µM
  TGI: 0.55 µM
[8]; [34]
  CC50: 2 µM
[9]
  GI50: 4.4 µM
  TGI: < 100 µM
[9]; [34]
  CC50: < 100 µM
[10]
  GI50: 17 µM
  TGI: 32 µM
[10]; [34]
  CC50: 63 µM
[11]
  GI50: 2.8 µM
  TGI: 12 µM
[11]; [34]
  CC50: 46 µM
[12]
  GI50: 3.1 µM
  TGI: 15 µM
[12]; [34]
  CC50: 41 µM
[13]
  GI50: 11 µM
  TGI: 26 µM
[13]; [34]
  CC50: 66 µM
[14]
  GI50: 2.6 µM
  TGI: 9.1 µM
[14]; [34]
  CC50: 35 µM
[15]
  GI50: 4.1 µM
  TGI: 40 µM
[15]; [34]
  CC50: < 100 µM
[16]
  GI50: 2.4 µM
  TGI: 14 µM
[16]; [34]
  CC50: 54 µM
[17]
  GI50: 13 µM
  TGI: 28 µM
[17]; [34]
  CC50: 59 µM
[18]
  GI50: 16 µM
  TGI: 35 µM
[18]; [34]
  CC50: 74 µM
[19]
  GI50: 41 µM
  TGI: 97 µM
[19]; [34]
  CC50: < 100 µM
[20]
  GI50: 12 µM
  TGI: 25 µM
[20]; [34]
  CC50: 50 µM
[21]
  GI50: 0.79 µM
  TGI: 23 µM
[21]; [34]
  CC50: 81 µM
[22]
  GI50: 1.4 µM
  TGI: 32 µM
[22]; [34]
  CC50: < 100 µM
[23]
  GI50: 1.4 µM
  TGI: 11 µM
[23]; [34]
  CC50: 46 µM
[24]
  GI50: 3.9 µM
  TGI: 18 µM
[24]; [34]
  CC50: 81 µM
[25]
  GI50: 2.5 µM
  TGI: 6.3 µM
[25]; [34]
  CC50: 47 µM
[26]
  GI50: 15 µM
  TGI: 34 µM
[26]; [34]
  CC50: 76 µM
[27]
  GI50: 1.4 µM
  TGI: 7.9 µM
[28]
  GI50: 15 µM
  TGI: 33 µM
[28]; [34]
  CC50: 71 µM
[29]
  GI50: 2.8 µM
  TGI: 12 µM
[29]; [34]
  CC50: 38 µM
[30]
  GI50: 0.3 µM
  TGI: 0.62 µM
[30]; [34]
  CC50: 1.9 µM
[31]
  GI50: 4.7 µM
  TGI: 48 µM
[31]; [34]
  CC50: < 100 µM
[32]
  GI50: 1.3 µM
  TGI: 4.2 µM
[32]; [34]
  CC50: 16 µM
[33]
  GI50: 5.4 µM
  TGI: 28 µM
[33]; [34]
  CC50: < 100 µM

— ChEMBL document CHEMBL1158007, “Steroidal glycosides from the bulbs of Allium jesdianum” (J Nat Prod, 1999)
